Measured values taken from patent US20100113472A1, “COMPOUNDS FOR THE TREATMENT OF OSTEOPOROSIS AND CANCERS” (ChemoCentryx, Inc., priority 2008, published 2010).

Columns and labels:
[1] = pharmacokinetic tests conducted in animals; type: in vivo; conditions: compared with related compounds of U.S. Publication No. 2007/0010524A1
[2] = system: Rat Model of Collagen Induced Arthritis; assay: Rat model of collagen induced arthritis; type: in vivo; conditions: female Lewis rats; 150 mg/kg oral, twice daily, day 9 to day 17
Experimental: A 17 day developing type II collagen arthritis study was conducted to evaluate the effects of a compound of interest on arthritis induced clinical ankle swelling. Rat collagen arthritis is an experimental model of polyarthritis that has been widely used for preclinical testing of numerous anti-arthritic agents (see Trentham, et al., J. Exp. Med. 146(3):857-868 (1977), Bendele, et al., Toxicologic Pathol. 27:134-142 (1999), Bendele, et al., Arthritis Rheum. 42:498-506 (1999)). The hallmarks of this model are reliable onset and progression of robust, easily measurable polyarticular inflammation, marked cartilage destruction in association with pannus formation and mild to moderate bone resorption and periosteal bone proliferation.
To measure the efficacy of CCR1 antagonists on the development of collagen induced arthritis in rats, compound 1.016 was evaluated in groups of 20 female Lewis rats. Animals were injected with 300 μl of Freund's Incomplete Adjuvant (Difco, Detroit, Mich.) containing 2 mg/ml bovine type II collagen (Elastin Products, Owensville, Mo.) at the base of the tail and 2 sites on the hack on days 0 and 6. Dosing by oral route (150 mg/kg; oral, twice daily) was initiated on day 9 of established disease (day 0 of arthritis) and continued through day 17 (day 7 of arthritis). On arthritis day 7, animals were euthanized for tissue collection. Hind paws were transected at the level of the medial and lateral malleolus, weighed and placed in formalin for microscopy. Osteoclasts were counted in 5, 400× magnification fields in ankle and knee of each joint and the mean number for the joint determined. Collagen arthritic ankles are also given scores of 0-5 (0 indicating normal and 5 indicating severe) for bone resorption according to established criteria.

[3] = system: Rabbit Model of Destructive Joint Inflammation; assay: Rabbit model of destructive joint inflammation (rabbit LPS study); type: in vivo; conditions: oral, 2 h before and 4 h after intra-articular LPS (10 ng); lavage 16 h after LPS
Experimental: A rabbit LPS study was conducted essentially as described in Podolin, et al. J. Immunol. 169(11):6435-6444 (2002). Female New Zealand rabbits (approximately 2 kilograms) were treated intra-articularly in both knees with LPS (10 ng). The compound of interest, for example 1.016, (formulated in 1% methocel) or vehicle (1% methocel) was dosed orally at a 5 ml/kg dose volume at two times (2 hours before the intra-articular LPS injection and 4 hours after the intra-articular LPS injection). Sixteen hours after the LPS injection, knees were lavaged and cells counts were performed. Beneficial effects of treatment were determined by reduction in the number of inflammatory cells recruited to the inflamed synovial fluid of the knee joints.

[4] = system: human peripheral blood mononuclear cells (PBMC) differentiating into osteoclasts; assay: Inhibition of formation of osteoclasts in vitro; type: cell-based; conditions: Osteoclast, 504 h, 100 nM, M-CSF and RANKL 50 ng/ml each, day 21, over the untreated control, read-out: inhibition of osteoclast formation (TRAP+ multinuclear cells)
Experimental: PBMC were prepared by layering human whole blood over a Ficoll ague plus (Amersham) gradient and centrifuging 45 minutes at 400 g. The interface of white cells is removed and washed twice with PBS, and placed in culture in RPMI with 10% FBS.
CCR1 is expressed on both osteoclast precursor cells and mature osteoclasts and modulates osteoclast formation and maturation. To evaluate the ability of the 1.016 compound to block osteoclast formation in vitro, human peripheral blood mononuclear cells (PBMC) were cultured in the presence of M-CSF (50 ng/ml) and RANKL (50 ng/ml), which induces the monocyte subpopulation to differentiate into giant multinucleated osteoclasts over 21 days. Compound 1.016 was added at a concentration of 100 nM to the culture media on day one and the compound/medium was changed twice weekly. On day 21, cells were fixed and stained for tartrate-resistant acid phosphatase (TRAP) (acid phosphatase leukocyte staining kit, Sigma, Mo.) and TRAP^+ multinuclear (3 or more nuclei) cells were quantified by light microscopy. Osteoclast formation in the presence of 1.016 was inhibited by ˜40% over the untreated control.

AUC [1]: increased | Cmax [1]: increased | oral bioavailability [1]: improved
SMILES: COc1cc(N2CCN(C(=O)Cn3nc(-c4ncc[nH]4)c4cccnc43)CC2)ccc1Cl [compound 1.016, 1-[4-(4-Chloro-3-methoxy-phenyl)-piperazin-1-yl]-2-[3-(1H-imidazol-2-yl)-pyrazolo[3,4-b]pyridin-1-yl]-ethanone]
bone resorption (score 0-5) [2]: reduction in bone resorption | clinical changes associated with established type II collagen arthritis [2]: effectively inhibited | joint swelling assessed by caliper measurements [2]: reduction in joint swelling | osteoclasts in ankle and knee (histopathology) [2]: reduction of osteoclasts | recruited inflammatory cells in synovial fluid of the knee joints [3]: significant reduction | inhibition at 0.1 µM [4]: ~40%
